According to the CheMixHub viscosity set:

Assay: xn = mol fraction of the nth substance listed

C1COCCO1 + CO
Conditions	viscosity [mPa·s]
293.15 K, 101 kPa, x2 = 0.2465	0.9992
293.15 K, 101 kPa, x2 = 0.3957	0.8686
293.15 K, 101 kPa, x2 = 0.5458	0.7639
293.15 K, 101 kPa, x2 = 0.6558	0.6972
293.15 K, 101 kPa, x2 = 0.7331	0.6579
293.15 K, 101 kPa, x2 = 0.8062	0.6268
293.15 K, 101 kPa, x2 = 0.8648	0.6069
293.15 K, 101 kPa, x2 = 0.9198	0.5935
293.15 K, 101 kPa, x2 = 0.9635	0.5877
293.15 K, 101.3 kPa, x2 = 0.1975	1.045
293.15 K, 101.3 kPa, x2 = 0.3447	0.9049
293.15 K, 101.3 kPa, x2 = 0.4743	0.8065
293.15 K, 101.3 kPa, x2 = 0.5836	0.7327
293.15 K, 101.3 kPa, x2 = 0.6782	0.6805
293.15 K, 101.3 kPa, x2 = 0.7588	0.6441
293.15 K, 101.3 kPa, x2 = 0.8312	0.6135
293.15 K, 101.3 kPa, x2 = 0.8936	0.5998
293.15 K, 101.3 kPa, x2 = 0.9503	0.59
298.15 K, 101 kPa, x1 = 0.3	0.6148
298.15 K, 101 kPa, x2 = 0.8474	0.5684
298.15 K, 101 kPa, x2 = 0.9275	0.5488
298.15 K, 101 kPa, x2 = 0.9636	0.5589
298.15 K, 101.3 kPa, x2 = 0.1975	0.9612
298.15 K, 101.3 kPa, x2 = 0.3447	0.8454
298.15 K, 101.3 kPa, x2 = 0.4743	0.7506
298.15 K, 101.3 kPa, x2 = 0.5836	0.6825
298.15 K, 101.3 kPa, x2 = 0.6782	0.6352
298.15 K, 101.3 kPa, x2 = 0.7588	0.6047
298.15 K, 101.3 kPa, x2 = 0.8312	0.578
298.15 K, 101.3 kPa, x2 = 0.9503	0.5443
303.15 K, 101 kPa, x2 = 0.2218	0.8759
303.15 K, 101 kPa, x2 = 0.4075	0.7425
303.15 K, 101 kPa, x2 = 0.5478	0.6573
303.15 K, 101 kPa, x2 = 0.6544	0.6056
303.15 K, 101 kPa, x2 = 0.7387	0.5694
303.15 K, 101 kPa, x2 = 0.8089	0.5455
303.15 K, 101 kPa, x2 = 0.8164	0.5434
303.15 K, 101 kPa, x2 = 0.8671	0.5288
303.15 K, 101 kPa, x2 = 0.9617	0.5105
303.15 K, 101.3 kPa, x2 = 0.1975	0.8931
303.15 K, 101.3 kPa, x2 = 0.3447	0.778
303.15 K, 101.3 kPa, x2 = 0.4743	0.6981
303.15 K, 101.3 kPa, x2 = 0.5836	0.6349
303.15 K, 101.3 kPa, x2 = 0.6782	0.5919
303.15 K, 101.3 kPa, x2 = 0.7588	0.5568
303.15 K, 101.3 kPa, x2 = 0.8312	0.5316
303.15 K, 101.3 kPa, x2 = 0.8936	0.5157
303.15 K, 101.3 kPa, x2 = 0.9503	0.5063
303.15 K, 101.33 kPa, x2 = 0.225	0.877
303.15 K, 101.33 kPa, x2 = 0.4115	0.733
303.15 K, 101.33 kPa, x2 = 0.662	0.603
303.15 K, 101.33 kPa, x2 = 0.923	0.52
308.15 K, 101.3 kPa, x2 = 0.1975	0.831
308.15 K, 101.3 kPa, x2 = 0.3447	0.7262
308.15 K, 101.3 kPa, x2 = 0.4743	0.6503
308.15 K, 101.3 kPa, x2 = 0.5836	0.593
308.15 K, 101.3 kPa, x2 = 0.6782	0.5507
308.15 K, 101.3 kPa, x2 = 0.7588	0.52
308.15 K, 101.3 kPa, x2 = 0.8312	0.497
308.15 K, 101.3 kPa, x2 = 0.9503	0.4725
313.15 K, 101 kPa, x2 = 0.2218	0.7572
313.15 K, 101 kPa, x2 = 0.2465	0.7401
313.15 K, 101 kPa, x2 = 0.4075	0.6436
313.15 K, 101 kPa, x2 = 0.5458	0.5763
313.15 K, 101 kPa, x2 = 0.6544	0.5294
313.15 K, 101 kPa, x2 = 0.7387	0.499
313.15 K, 101 kPa, x2 = 0.8089	0.4782
313.15 K, 101 kPa, x2 = 0.8671	0.4627
313.15 K, 101 kPa, x2 = 0.9635	0.446
323.15 K, 101 kPa, x2 = 0.2465	0.6508
323.15 K, 101 kPa, x2 = 0.3957	0.5742
323.15 K, 101 kPa, x2 = 0.5458	0.5093
323.15 K, 101 kPa, x2 = 0.6558	0.4701
323.15 K, 101 kPa, x2 = 0.7331	0.4449
323.15 K, 101 kPa, x2 = 0.8062	0.4249
323.15 K, 101 kPa, x2 = 0.8648	0.4107
323.15 K, 101 kPa, x2 = 0.9198	0.4003
323.15 K, 101 kPa, x2 = 0.9635	0.3949

CC(C)N + O=C1CCCCC1
298.15 K, 101 kPa
Conditions	viscosity [mPa·s]
x2 = 0.0627	0.41
x2 = 0.1309	0.604
x2 = 0.2051	0.844
x2 = 0.2865	1.135
x2 = 0.3759	1.498
x2 = 0.4746	1.904
x2 = 0.5842	2.083
x2 = 0.7067	2.162
x2 = 0.8442	2.051

BrCCBr + Cc1cccc(C)c1
101.33 kPa
Conditions	viscosity [mPa·s]
298.15 K, x1 = 0.1391	0.6538
298.15 K, x1 = 0.269	0.7069
298.15 K, x1 = 0.3835	0.8095
298.15 K, x1 = 0.4852	0.8843
298.15 K, x1 = 0.5776	1.002
298.15 K, x1 = 0.6789	1.064
298.15 K, x1 = 0.7684	1.191
298.15 K, x1 = 0.8458	1.307
298.15 K, x1 = 0.9257	1.447
308.15 K, x1 = 0.1463	0.587
308.15 K, x1 = 0.2621	0.6362
308.15 K, x1 = 0.3771	0.7044
308.15 K, x1 = 0.4834	0.764
308.15 K, x1 = 0.5853	0.8526
308.15 K, x1 = 0.6796	0.9345
308.15 K, x1 = 0.7697	1.018
308.15 K, x1 = 0.8516	1.143
308.15 K, x1 = 0.9254	1.259

Brc1ccccc1 + C1COCCO1
303.15 K, 101 kPa
Conditions	viscosity [mPa·s]
x1 = 0.083	1.075
x1 = 0.17	1.078
x1 = 0.259	1.122
x1 = 0.352	1.131
x1 = 0.449	1.125
x1 = 0.55	1.115
x1 = 0.655	1.108
x1 = 0.766	1.079
x1 = 0.88	1.034

CC(C)N + CCC(C)=O
298.15 K, 101 kPa
Conditions	viscosity [mPa·s]
x2 = 0.0835	0.288
x2 = 0.1701	0.3
x2 = 0.26	0.314
x2 = 0.3534	0.33
x2 = 0.4505	0.345
x2 = 0.5515	0.358
x2 = 0.6567	0.37
x2 = 0.7663	0.371
x2 = 0.8806	0.372

COC(=O)CC(=O)OC + CC(C)=O
303.15 K, 101 kPa
Conditions	viscosity [mPa·s]
x1 = 0.0666	0.4127
x1 = 0.139	0.5371
x1 = 0.2164	0.6676
x1 = 0.3009	0.8036
x1 = 0.392	0.9488
x1 = 0.4919	1.094
x1 = 0.6008	1.258
x1 = 0.7208	1.429
x1 = 0.8531	1.614

C1=C[C@H]2[C@@H](C1)[C@H]1C=C[C@@H]2C1 + Cc1ccccc1
viscosity [mPa·s], 101.2 kPa
Conditions	x1 = 0.1024	x1 = 0.2018	x1 = 0.3008	x1 = 0.4006	x1 = 0.4997	x1 = 0.606	x1 = 0.7014	x1 = 0.7987	x1 = 0.8991
293.15 K	0.6849	0.7905	0.9144	1.08	1.279	1.57	1.948	2.495	3.305
298.15 K	0.6448	0.7387	0.8543	1.001	1.174	1.44	1.758	2.24	2.96
303.15 K	0.6068	0.69	0.7952	0.9255	1.083	1.313	1.602	2.024	2.665
308.15 K	0.5742	0.6559	0.7533	0.8681	1.019	1.222	1.486	1.875	2.43
313.15 K	0.5451	0.6205	0.7071	0.8118	0.9488	1.135	1.375	1.718	2.208
318.15 K	0.5187	0.5889	0.6667	0.76	0.8866	1.062	1.283	1.58	2.012

C=CC[P+](c1ccccc1)(c1ccccc1)c1ccccc1.[Br-] + OCCOCCO
viscosity [mPa·s], 100 kPa
Conditions	293.15 K	298.15 K	303.15 K	308.15 K	313.15 K	318.15 K	323.15 K
x1 = 0.05884	57.19	43.59	33.68	26.69	21.74	17.83	14.79
x1 = 0.09089	70.92	53.42	41.11	32.27	25.8	20.96	17.27
x1 = 0.2	213.2	150.8	109.1	81.11	61.8	47.98	37.87

N#C[S-].[NH4+] + CCn1cc[n+](C)c1.N#C[S-]
viscosity [mPa·s], 100 kPa
Conditions	298.15 K	303.15 K	308.15 K	313.15 K	318.15 K	323.15 K
x1 = 0.039	25.91	21.97	18.84	16.11	14.28	12.59
x1 = 0.099	29.91	25.16	21.4	18.21	16	14.03
x1 = 0.1395	31.58	26.49	22.47	19.09	16.71	14.62
